This assay deals with SK-BR-3. Kind of assay: Inhibition of oncogene product p185 erbB-2 from human breast cancer cells(SK-BR-3 cells).
The compound `CO[C@H]1/C=C\C=C(/C)C(=O)NC2=CC(=O)C(N[C@H](C)CO)=C(C[C@@H](C)C[C@H](OC)[C@H](O)[C@@H](C)/C=C(\C)[C@@H]1OC(N)=O)C2=O` returned an IC50 of 330 nM. The compound `CO[C@H]1C[C@H](C)CC2=C3N=C(/N=C(\N)N4CCC4)N=C3C=C(NC(=O)/C(C)=C/CC[C@H](OC)[C@@H](OC(N)=O)/C(C)=C/[C@H](C)[C@H]1O)C2=O` registered an IC50 of 980 nM.

In turn, `CO[C@H]1/C=C\C=C(/C)C(=O)NC2=CC3=NC(/N=C(\N)N4CCC(C)CC4)=NC3=C(C[C@@H](C)C[C@H](OC)[C@H](O)[C@@H](C)/C=C(\C)[C@@H]1OC(N)=O)C2=O` returned an IC50 of 150 nM. Consider `CO[C@H]1/C=C\C=C(/C)C(=O)NC2=CC(=O)C(N[C@@H](C)CO)=C(C[C@@H](C)C[C@H](OC)[C@H](O)[C@@H](C)/C=C(\C)[C@@H]1OC(N)=O)C2=O`, for which the IC50 is 180 nM. In the case of `COCCNC1=C2C[C@@H](C)C[C@H](OC)[C@H](O)[C@@H](C)/C=C(\C)[C@H](OC(N)=O)[C@@H](OC)/C=C\C=C(/C)C(=O)NC(=CC1=O)C2=O`, the IC50 came out at 66 nM. Regarding `CO[C@H]1/C=C\C=C(/C)C(=O)NC2=CC(=O)C(NCCCN(C)C)=C(C[C@@H](C)C[C@H](OC)[C@H](O)[C@@H](C)/C=C(\C)[C@@H]1OC(N)=O)C2=O`, the IC50 came to 140 nM.

In turn, `CO[C@H]1/C=C\C=C(/C)C(=O)NC2=CC(=O)C(Nc3nccs3)=C(C[C@@H](C)C[C@H](OC)[C@H](O)[C@@H](C)/C=C(\C)[C@@H]1OC(N)=O)C2=O` gave an IC50 of 220 nM.

Turning to `CO[C@H]1/C=C\C=C(/C)C(=O)NC2=CC(=O)C(NCCNC(C)=O)=C(C[C@@H](C)C[C@H](OC)[C@H](O)[C@@H](C)/C=C(\C)[C@@H]1OC(N)=O)C2=O`, the half-inhibitory concentration (IC50) came out at 1270 nM.

Regarding `COC1c2cc(O)cc(c2O)NC(=O)/C(C)=C/C=C\[C@H](OC)[C@@H](OC(N)=O)/C(C)=C/[C@H](C)[C@@H](OC)[C@@H](OC)C[C@@H]1C` (some centres undefined), the IC50 was determined as 520 nM. As for `CO[C@H]1/C=C\C=C(/C)C(=O)Nc2cc3nc4ccccc4oc-3c(c2=O)C[C@@H](C)C[C@H](OC)[C@H](O)[C@@H](C)/C=C(\C)[C@@H]1OC(N)=O`, it took 420 nM to reach half-maximal inhibition (IC50).

For the compound `COC1=C2C[C@@H](C)C[C@H](OC)[C@H](O)[C@@H](C)/C=C(\C)[C@H](OC(N)=O)[C@@H](OC)/C=C\C=C(/C)C3=NC(=C(C1=O)C(NC(C)(C)C)O3)C2=O` (some centres undefined), the IC50 was > 3100 nM.

Take `CO[C@H]1/C=C\C=C(/C)C(=O)NC2=CC3=NCCCNC3=C(C[C@@H](C)C[C@H](OC)[C@H](O)[C@@H](C)/C=C(\C)[C@@H]1OC(N)=O)C2=O`: the IC50 stood at 260 nM. `CO[C@H]1/C=C\C=C(/C)C(=O)NC2=CC(=O)C(NCCCO)=C(C[C@@H](C)C[C@H](OC)[C@H](O)[C@@H](C)/C=C(\C)[C@@H]1OC(N)=O)C2=O` yielded a concentration for half-maximal inhibition (IC50) of 130 nM. For the compound `CO[C@H]1C[C@H](C)CC2=C(N3CC(N)C3)C(=O)C=C(NC(=O)/C(C)=C/CC[C@H](OC)[C@@H](OC(N)=O)/C(C)=C/[C@H](C)[C@H]1O)C2=O`, the midpoint of inhibition, the IC50, lay at 66 nM. In the case of `CO[C@H]1/C=C\C=C(/C)C(=O)NC2=CC(=O)C(O)=C(C[C@@H](C)C[C@H](OC)[C@H](O)[C@@H](C)/C=C(\C)[C@@H]1OC(N)=O)C2=O`, the IC50 is > 3700 nM.

For `CO[C@H]1/C=C\C=C(/C)C(=O)NC2=CC(=O)C(N=C(N(C)C)N(C)C)=C(C[C@@H](C)C[C@H](OC)[C@H](O)[C@@H](C)/C=C(\C)[C@@H]1OC(N)=O)C2=O`, the IC50 amounted to 170 nM.

The compound `CO[C@H]1/C=C\C=C(/C)C(=O)NC2=CC(=O)C(NCCCN)=C(C[C@@H](C)C[C@H](OC)[C@H](O)[C@@H](C)/C=C(\C)[C@@H]1OC(N)=O)C2=O` yielded an IC50 of 80 nM. Regarding `COc1c(O)cc2c(O)c1C[C@@H](C)C[C@H](OC)[C@H](O)[C@@H](C)/C=C(\C)[C@H](OC(N)=O)[C@@H](OC)/C=C\C=C(/C)C(=O)N2`, the IC50 is 100 nM. Take `COC1=C2C[C@@H](C)C[C@H](OC)[C@H](O)[C@@H](C)/C=C(\C)[C@H](OC(N)=O)[C@@H](OC)/C=C\C=C(/C)C(=O)NC(=C(/C=N/N3CCN(C)CC3)C1=O)C2=O`: the IC50 was > 2900 nM. `CO[C@H]1/C=C\C=C(/C)C(=O)NC2=CC(=O)C(NCCO)=C(C[C@@H](C)C[C@H](OC)[C@H](O)[C@@H](C)/C=C(\C)[C@@H]1OC(N)=O)C2=O` came in with a 50% inhibitory concentration (IC50) of 100 nM. With `CO[C@H]1/C=C\C=C(/C)C(=O)NC2=CC3=NC(/N=C(\N)N4CCOCC4)=NC3=C(C[C@@H](C)C[C@H](OC)[C@H](O)[C@@H](C)/C=C(\C)[C@@H]1OC(N)=O)C2=O` the figure was 2030 nM. `CO[C@H]1/C=C\C=C(/C)C(=O)NC2=CC(=O)C(NCCS)=C(C[C@@H](C)C[C@H](OC)[C@H](O)[C@@H](C)/C=C(\C)[C@@H]1OC(N)=O)C2=O` registered an IC50 of 170 nM. In the case of `COC1=C2C[C@@H](C)C[C@H](OC)[C@H](O)[C@@H](C)/C=C(\C)[C@H](OC(N)=O)[C@@H](OC)/C=C\C=C(/C)C(=O)NC(=C(Br)C1=O)C2=O`, the IC50 was > 3130 nM. With `CNC1=C2C[C@@H](C)C[C@H](OC)[C@H](O)[C@@H](C)/C=C(\C)[C@H](OC(N)=O)[C@@H](OC)/C=C\C=C(/C)C(=O)NC(=CC1=O)C2=O` the figure was 89 nM; with `CO[C@H]1/C=C\C=C(/C)C(=O)NC2=CC(=O)C(NCCCI)=C(C[C@@H](C)C[C@H](OC)[C@H](O)[C@@H](C)/C=C(\C)[C@@H]1OC(N)=O)C2=O`, 110 nM.

Consider `CO[C@H]1/C=C\C=C(/C)C(=O)NC2=CC(=O)C(NC(C)(C)C)=C(C[C@@H](C)C[C@H](OC)[C@H](O)[C@@H](C)/C=C(\C)[C@@H]1OC(N)=O)C2=O`, for which half-maximal inhibition (IC50) was put at 200 nM. Turning to `CO[C@H]1/C=C\C=C(/C)C(=O)NC2=C(NCCCN(C)C)C(=O)C(NCCCN(C)C)=C(C[C@@H](C)C[C@H](OC)[C@H](O)[C@@H](C)/C=C(\C)[C@@H]1OC(N)=O)C2=O`, the IC50 was > 4100 nM.

Consider `CO[C@H]1C[C@H](C)CC2=C(NCCC(=O)O)C(=O)C=C(NC(=O)/C(C)=C/CC[C@H](OC)[C@@H](OC(N)=O)/C(C)=C/[C@H](C)[C@H]1O)C2=O`, for which the IC50 is > 3200 nM. As to `CO[C@H]1/C=C\C=C(/C)C(=O)NC2=CC(=O)C(NCCC(=O)O)=C(C[C@@H](C)C[C@H](OC)[C@H](O)[C@@H](C)/C=C(\C)[C@@H]1OC(N)=O)C2=O`, the half-inhibitory concentration (IC50) stood at 190 nM.

Turning to `CO[C@H]1/C=C\C=C(/C)C(=O)NC2=CC(=O)C(NC3CN4CCC3CC4)=C(C[C@@H](C)C[C@H](OC)[C@H](O)[C@@H](C)/C=C(\C)[C@@H]1OC(N)=O)C2=O` (some centres undefined), the IC50 came out at 1370 nM. Then `COC1=C2C[C@@H](C)C[C@H](OC)[C@H](O)[C@@H](C)/C=C(\C)[C@H](OC(N)=O)[C@@H](OC)CC/C=C(\C)C(=O)NC(=CC1=O)C2=O`, with 230 nM; and `CO[C@H]1/C=C\C=C(/C)C(=O)NC2=CC(=O)C(NCCCn3ccnc3)=C(C[C@@H](C)C[C@H](OC)[C@H](O)[C@@H](C)/C=C(\C)[C@@H]1OC(N)=O)C2=O`, with 920 nM. With `CO[C@H]1/C=C\C=C(/C)C(=O)NC2=CC(=O)C(NCCSC)=C(C[C@@H](C)C[C@H](OC)[C@H](O)[C@@H](C)/C=C(\C)[C@@H]1OC(N)=O)C2=O` the figure was 98 nM. With `CO[C@H]1/C=C\C=C(/C)C(=O)NC2=CC(=O)C(NCC(N)=O)=C(C[C@@H](C)C[C@H](OC)[C@H](O)[C@@H](C)/C=C(\C)[C@@H]1OC(N)=O)C2=O` the figure was 1990 nM; with `CO[C@H]1/C=C\C=C(/C)C(=O)NC2=CC(=O)C(NC[C@@H](C)O)=C(C[C@@H](C)C[C@H](OC)[C@H](O)[C@@H](C)/C=C(\C)[C@@H]1OC(N)=O)C2=O`, 260 nM. In the case of `COC1=C2C[C@@H](C)C[C@H](OC)[C@H](O)[C@@H](C)/C=C(\C)[C@H](OC(N)=O)[C@@H](OC)/C=C\C=C(/C)C(=O)NC(=C(NC3CC3)C1=O)C2=O`, the IC50 is > 3250 nM. `C=CCNC1=C2C[C@@H](C)C[C@H](OC)[C@H](O)[C@@H](C)/C=C(\C)[C@H](OC(N)=O)[C@@H](OC)CC/C=C(\C)C(=O)NC(=CC1=O)C2=O` yielded an IC50 of 51 nM. Compound `CO[C@H]1/C=C\C=C(/C)C(=O)NC2=CC(=O)C(N3CC(O)C3)=C(C[C@@H](C)C[C@H](OC)[C@H](O)[C@@H](C)/C=C(\C)[C@@H]1OC(N)=O)C2=O` came in with an IC50 of 50 nM. `CO[C@H]1/C=C\C=C(/C)C(=O)NC2=CC(=O)C(NCCc3ccco3)=C(C[C@@H](C)C[C@H](OC)[C@H](O)[C@@H](C)/C=C(\C)[C@@H]1OC(N)=O)C2=O` gave an IC50 of 320 nM. With `CO[C@H]1/C=C\C=C(/C)C(=O)NC2=CC(=O)C(NCC3CCNCC3)=C(C[C@@H](C)C[C@H](OC)[C@H](O)[C@@H](C)/C=C(\C)[C@@H]1OC(N)=O)C2=O` the figure was > 3100 nM.

For `CO[C@H]1C[C@H](C)CC2=C(N3CC(CO)C3)C(=O)C=C(NC(=O)/C(C)=C/CC[C@H](OC)[C@@H](OC(N)=O)/C(C)=C/[C@H](C)[C@H]1O)C2=O`, half-maximal inhibition (IC50) was put at 1300 nM.

Compound `COC1c2cc(O)cc(c2O)NC(=O)/C(C)=C/C=C\[C@H](OC)[C@@H](OC(N)=O)/C(C)=C/[C@H](C)[C@@H](O)[C@@H](OC)C[C@@H]1C` (some centres undefined) displayed an IC50 of 1100 nM. On to `COC(CNC1=C2C[C@@H](C)C[C@H](OC)[C@H](O)[C@@H](C)/C=C(\C)[C@H](OC(N)=O)[C@@H](OC)/C=C\C=C(/C)C(=O)NC(=CC1=O)C2=O)OC`, for which 710 nM corresponded to half-maximal inhibition (IC50). `COC1=C2C[C@@H](C)C[C@H](OC)[C@H](O)[C@@H](C)/C=C(\C)[C@H](OC(N)=O)[C@@H](OC)/C=C\C=C(/C)C(=O)NC(=C(N3C=CC=CC=C3)C1=O)C2=O` gave an IC50 of 1500 nM.

For the compound `CO[C@H]1C[C@H](C)CC2=C(NCCSC)C(=O)C=C(NC(=O)/C(C)=C/CC[C@H](OC)[C@@H](OC(N)=O)/C(C)=C/[C@H](C)[C@H]1O)C2=O`, the 50% inhibitory concentration (IC50) turned out to be 140 nM.

In turn, `CO[C@H]1/C=C\C=C(/C)C(=O)NC2=CC(=O)C(NC3CC3)=C(C[C@@H](C)C[C@H](OC)[C@H](O)[C@@H](C)/C=C(\C)[C@@H]1OC(N)=O)C2=O` registered an IC50 of 43 nM. In turn, `CO[C@H]1/C=C\C=C(/C)C(=O)NC2=CC(=O)C(NCC(O)CO)=C(C[C@@H](C)C[C@H](OC)[C@H](O)[C@@H](C)/C=C(\C)[C@@H]1OC(N)=O)C2=O` (some centres undefined) had a half-maximal inhibitory concentration (IC50) of 970 nM. For `CO[C@H]1/C=C\C=C(/C)C(=O)NC2=CC(=O)C(NCCS(=O)(=O)O)=C(C[C@@H](C)C[C@H](OC)[C@H](O)[C@@H](C)/C=C(\C)[C@@H]1OC(N)=O)C2=O`, the half-inhibitory concentration (IC50) was > 2700 nM. With `CO[C@H]1/C=C\C=C(/C)C(=O)Nc2cc3nc4ccccc4nc3c(c2O)C[C@@H](C)C[C@H](OC)[C@H](O)[C@@H](C)/C=C(\C)[C@@H]1OC(N)=O` the figure was > 3200 nM.

As usually defined, the IC50 is the concentration that gives 50% inhibition. Low values mean greater potency, high ones weaker potency.
